Some test systems named below: A498; CCRF-CEM; EKVX; HCC 2998; HL-60; Hs-578T; IGROV-1; NCI/ADR-RES; OVCAR-3; OVCAR-4; SF-295; SK-MEL-5; SNB-75; U-251; UACC-257; COLO 205; HCT-116; NCI-H226; SK-MEL-2.
Assay in all cases: NCI anticancer screen, dose series, 48 h

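Assay format: 96-well plates, 48-hour exposure. GI50: concentration for 50% inhibition of growth.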 Calls of active or inactive are those of the source. Cut-off read from the data, not from the text of the source: active = GI50 up to about 1.1 µM and inactive = higher.

Regarding `CN1CC[C@@]2(c3cccc(O)c3)CC(=O)/C(=C/c3ccc(Cl)c(Cl)c3)[C@H]1C2`, the GI50 with A498 is 13.6 µM (inactive); in the experiment on CCRF-CEM, 2.26 µM (inactive); in the experiment with EKVX, 8.79 µM (inactive); in the experiment on HCC 2998, 1.82 µM (inactive); with HL-60, 1.52 µM (inactive); in the experiment on Hs-578T, 2.51 µM (inactive). Besides, the GI50 with IGROV-1 is 2.23 µM (inactive); with NCI/ADR-RES, 2.38 µM (inactive); in the experiment on OVCAR-3 it was 2.23 µM (inactive); in the experiment with OVCAR-4 it was 4.59 µM (inactive); with SF-295, 2.03 µM (inactive); with SK-MEL-5, 2 µM (inactive). Also, the GI50 in the experiment on SNB-75 was 1.06 µM (active); with U-251, 1.38 µM (inactive); in the experiment on UACC-257, 3.41 µM (inactive).

Regarding `CCn1c2ccccc2c2cc(NC(=O)c3c(C)nc(O)nc3NCCNCCO)ccc21`, the GI50 in the experiment with A498, in the experiment with CCRF-CEM, with COLO 205, in the experiment with EKVX, with HCC 2998 and in the experiment with HCT-116 was > 100 µM (inactive) each time. Moreover, the GI50 in the experiment with HL-60 was 1.58 µM (inactive); in the experiment with Hs-578T, > 100 µM (inactive); in the experiment with IGROV-1, > 100 µM (inactive); in the experiment on NCI-H226, > 100 µM (inactive); in the experiment on NCI/ADR-RES, > 100 µM (inactive); in the experiment on OVCAR-3, > 100 µM (inactive). Further, the GI50 in the experiment on OVCAR-4, with SF-295, with SK-MEL-5, with SNB-75, with U-251 and in the experiment with UACC-257 was > 100 µM (inactive) in each case.

Consider `CN1c2ccccc2S(=O)(=O)n2c(CCc3ccccc3)nnc21`, for which the GI50 in the experiment on A498 was 39.1 µM (inactive); in the experiment on CCRF-CEM, > 100 µM (inactive); with COLO 205, > 100 µM (inactive); in the experiment with EKVX, > 100 µM (inactive); in the experiment on HCC 2998, > 100 µM (inactive); in the experiment with HCT-116 it was > 100 µM (inactive). For the same compound, the GI50 in the experiment on HL-60 was > 100 µM (inactive); with Hs-578T, 79.4 µM (inactive); in the experiment on IGROV-1, > 100 µM (inactive); with NCI-H226, > 100 µM (inactive); in the experiment with NCI/ADR-RES it was > 100 µM (inactive); with OVCAR-3 it was > 100 µM (inactive). Further, the GI50 is 82 µM (inactive) in the experiment on OVCAR-4; 56.2 µM (inactive) in the experiment on SF-295; > 100 µM (inactive) in the experiment on SK-MEL-2; > 100 µM (inactive) in the experiment with SK-MEL-5; > 100 µM (inactive) in the experiment on U-251; > 100 µM (inactive) with UACC-257.

Consider `CCOP(=O)(OCC)C(C(=O)OC)C(=O)C(=O)Nc1cccc(O)c1` (configuration not stated), for which the GI50 with A498, in the experiment on CCRF-CEM, in the experiment with COLO 205, in the experiment with EKVX, in the experiment with HCC 2998 and with HCT-116 was > 100 µM (inactive) throughout. Further, the GI50 in the experiment on Hs-578T, in the experiment with IGROV-1, in the experiment on NCI-H226, with NCI/ADR-RES, in the experiment on OVCAR-3 and in the experiment on OVCAR-4 was > 100 µM (inactive) in each case. In addition, the GI50 in the experiment with SF-295, in the experiment with SK-MEL-2, with SK-MEL-5, in the experiment on SNB-75, with U-251 and with UACC-257 was > 100 µM (inactive) throughout.

For the compound `COc1cc2ccc1OCc1cccc(n1)COc1ccc(cc1OC)/C=N\CCNCC/N=C\2`, the GI50 in the experiment on A498 was > 100 µM (inactive); in the experiment on COLO 205, > 100 µM (inactive); with EKVX, > 100 µM (inactive); in the experiment with HCC 2998, > 100 µM (inactive); in the experiment with HCT-116, 45.4 µM (inactive); with HL-60, > 100 µM (inactive). Moreover, the GI50 in the experiment with Hs-578T is 35.4 µM (inactive); in the experiment on IGROV-1, > 100 µM (inactive); in the experiment on NCI-H226, > 100 µM (inactive); in the experiment with NCI/ADR-RES, > 100 µM (inactive); in the experiment with OVCAR-3 it was > 100 µM (inactive); in the experiment with OVCAR-4, > 100 µM (inactive). The GI50 with SF-295 is 41.7 µM (inactive); in the experiment with SK-MEL-2, > 100 µM (inactive); in the experiment with SK-MEL-5, > 100 µM (inactive); in the experiment with SNB-75 it was 30.5 µM (inactive); in the experiment on U-251, 33.2 µM (inactive); in the experiment with UACC-257, > 100 µM (inactive).

In the case of `O=c1[nH]c2ccccc2c2nc3ccccc3n12`, the GI50 in the experiment with A498 is > 100 µM (inactive); in the experiment on CCRF-CEM it was > 100 µM (inactive); with COLO 205, 29.2 µM (inactive); with EKVX, 3.89 µM (inactive); with HCC 2998, 27.9 µM (inactive); in the experiment with HCT-116 it was 19.1 µM (inactive). The GI50 with HL-60 was > 100 µM (inactive); in the experiment with Hs-578T, 65.6 µM (inactive); in the experiment on IGROV-1, 0.61 µM (active); in the experiment with NCI/ADR-RES it was 81.1 µM (inactive); in the experiment with OVCAR-3, 54.5 µM (inactive); with OVCAR-4, 2 µM (inactive). Moreover, the GI50 with SF-295 is 62.4 µM (inactive); with SK-MEL-5 it was 19.5 µM (inactive); in the experiment on U-251, 46.1 µM (inactive); in the experiment on UACC-257 it was 38.1 µM (inactive).

On to `Cc1ccc(S(=O)(=O)N/N=C2\CCC3(O)CC2(C)CCC2C3CC2(C)C)cc1` (configuration not stated), for which the GI50 is 36.8 µM (inactive) in the experiment on A498; > 100 µM (inactive) with CCRF-CEM; 22.5 µM (inactive) in the experiment with COLO 205; 40.1 µM (inactive) with EKVX; 46.3 µM (inactive) with HCC 2998; 30.7 µM (inactive) with HCT-116. Also, the GI50 was > 100 µM (inactive) with HL-60; 20 µM (inactive) in the experiment on Hs-578T; 45.1 µM (inactive) with IGROV-1; 27.4 µM (inactive) in the experiment on NCI-H226; 33.7 µM (inactive) in the experiment with NCI/ADR-RES; 37.8 µM (inactive) in the experiment with OVCAR-3. For the same compound, the GI50 in the experiment on OVCAR-4 is 28.4 µM (inactive); in the experiment with SF-295, 33 µM (inactive); in the experiment with SK-MEL-2 it was 18.7 µM (inactive); with SK-MEL-5, 35.6 µM (inactive); in the experiment on U-251 it was 42.7 µM (inactive); with UACC-257 it was 37.1 µM (inactive).

Consider `COC(=O)/C=C/c1cc(O)c2c(c1)[C@H](C(=O)OC)[C@@H](c1ccc(O)c(O)c1)O2`, for which the GI50 in the experiment with A498 was 6.82 µM (inactive); with CCRF-CEM it was 0.0381 µM (active); in the experiment with COLO 205, 11.5 µM (inactive); with EKVX, 8.67 µM (inactive); in the experiment with HCC 2998, 19.2 µM (inactive); in the experiment with HCT-116 it was 0.0499 µM (active). Further, the GI50 is 0.046 µM (active) in the experiment on Hs-578T; 0.221 µM (active) in the experiment with IGROV-1; 2.48 µM (inactive) in the experiment on NCI-H226; 0.158 µM (active) with NCI/ADR-RES; 0.0339 µM (active) in the experiment with OVCAR-3; 2.76 µM (inactive) in the experiment on OVCAR-4. The GI50 in the experiment on SF-295 is 0.476 µM (active); in the experiment on SK-MEL-2, 0.0783 µM (active); with SK-MEL-5, 0.0335 µM (active); with SNB-75, 0.0195 µM (active); in the experiment on U-251, 0.0664 µM (active); with UACC-257, 17.4 µM (inactive).

With `C[Si](C)(C)OC1c2[nH]c3ccccc3c2CN2C(=O)CCC12` (configuration not stated), the GI50 in the experiment with A498, in the experiment on COLO 205, in the experiment on EKVX, in the experiment on HCC 2998, in the experiment on HCT-116 and in the experiment on HL-60 was > 100 µM (inactive) each time. The GI50 with Hs-578T, with IGROV-1, with NCI-H226, with NCI/ADR-RES, in the experiment on OVCAR-3 and in the experiment on OVCAR-4 was > 100 µM (inactive) each time. In addition, the GI50 with SK-MEL-2, in the experiment on SK-MEL-5, in the experiment with SNB-75, in the experiment with U-251 and in the experiment on UACC-257 was > 100 µM (inactive) throughout.

For `Nc1ncnc2oc(C3OC(COC(=O)c4ccccc4)C(OC(=O)c4ccccc4)C3OC(=O)c3ccccc3)nc12` (configuration not stated), the GI50 in the experiment with A498 is 14.8 µM (inactive); with CCRF-CEM, > 100 µM (inactive); in the experiment with COLO 205, > 100 µM (inactive); in the experiment on EKVX, > 100 µM (inactive); with HCC 2998, > 100 µM (inactive); in the experiment on HCT-116, > 100 µM (inactive). In addition, the GI50 in the experiment with HL-60 was > 100 µM (inactive); in the experiment on Hs-578T, 49.2 µM (inactive); in the experiment on IGROV-1, > 100 µM (inactive); with NCI-H226, > 100 µM (inactive); in the experiment on NCI/ADR-RES it was > 100 µM (inactive); in the experiment on OVCAR-3, > 100 µM (inactive). In addition, the GI50 with OVCAR-4 was > 100 µM (inactive); in the experiment with SF-295, > 100 µM (inactive); in the experiment on SK-MEL-5 it was > 100 µM (inactive); in the experiment on SNB-75 it was 29.2 µM (inactive); with U-251 it was > 100 µM (inactive); in the experiment with UACC-257, > 100 µM (inactive).

As for `CCc1ccc2c(c1)CC1(C2)Cc2cc3c(cc2C1)C(=O)CC3` (configuration not stated), the GI50 in the experiment on A498 is 10.9 µM (inactive); in the experiment on CCRF-CEM, 2.94 µM (inactive); in the experiment with COLO 205 it was 4.93 µM (inactive); in the experiment with EKVX, > 100 µM (inactive); with HCC 2998, 10.5 µM (inactive); in the experiment with HCT-116, 12.1 µM (inactive). Moreover, the GI50 in the experiment with HL-60 is 2.69 µM (inactive); in the experiment with Hs-578T, > 100 µM (inactive); with IGROV-1 it was 17.3 µM (inactive); in the experiment on NCI-H226, 19.7 µM (inactive); with NCI/ADR-RES, 40.5 µM (inactive); in the experiment with OVCAR-3, 17.3 µM (inactive). The GI50 is 15 µM (inactive) in the experiment with OVCAR-4; 19.1 µM (inactive) in the experiment with SF-295; 4.26 µM (inactive) in the experiment on SK-MEL-2; 5.01 µM (inactive) in the experiment with SK-MEL-5; 18.8 µM (inactive) with U-251; 8.39 µM (inactive) in the experiment with UACC-257.

Source of the values: ChEMBL document CHEMBL1201862, “PubChem BioAssay data set” (2004).
